From patent publication US20070185079A1, “Therapeutic agents I” (ASTRAZENECA AB, priority 2004, published 2007)
pIC50: −log10 of the molar value.

How the values were obtained:
[1] = molecular target: T1, human Melanin concentrating hormone receptor 1 (MCH1r) (Homo sapiens, UniProt Q99705); assay: MCH1 receptor radioligand binding, membranes from CHO-K1 cells, 125I-MCH; settings: CHO-K1 cell membranes expressing human MCH1r, 30° C., 60 minutes, read-out: IC50 in human MCHr binding assay
T1 construct: expressed in transfected cells; host or cells: CHO-K1
Description: MCH1 Receptor Radioligand Binding.
Assays were performed on membranes prepared from CHO-K1 cells expressing the human Melanin concentrating hormone receptor 1 (MCH1r). Assays were performed in a 96-well plate format in a final reaction volume of 200 μl per well. Each well contained 6 μg of membrane proteins diluted in binding buffer (50 mM Tris, 3 mM MgCl2, 0.05% bovine serum albumin (BSA) and the radioligand ^125I-MCH (IM344 Amersham) was added to give 10 000 cpm (counts per minute) per well. Each well contained 2 μl of the appropriate concentration of competitive antagonist prepared in DMSO and left to stand at 30° C. for 60 minutes. Non-specific binding was determined as that remaining following incubation with 1 μM MCH (Melanin concentrating hormone, H-1482 Bachem). The reaction was terminated by transfer of the reaction to GF/A filters using a Micro96 Harvester (Skatron Instruments, Norway). Filters were washed with assay buffer. Radioligand retained on the filters was quantified using a1450 Microbeta TRILUX (Wallac , Finland).
(§1) Non-specific binding was subtracted from all values determined. Maximum binding was that determined in the absence of any competitor following subtraction of the value determined for non-specific binding. Binding of compounds at various concentrations was plotted according to the equation y=A+((B−A)/1+((C/x)ˆAD))) and IC50 estimated where • A is the bottom plateau of the curve i.e. the final minimum y value • B is the top of the plateau of the curve i.e. the final maximum y value • C is the x value at the middle of the curve. This represents the log EC50 value when A+B=100 • D is the slope factor. x is the original known x values. y is the original known y values.

[2] = molecular target: T2, rat Melanin concentrating hormone receptor 1 (MCH1r) (Rattus norvegicus, UniProt P97639); assay: MCH1 receptor radioligand binding, membranes from HEK293 cells, 125I-MCH; settings: HEK293 cell membranes stably expressing rat MCH1r, room temperature, 60 minutes
T2 construct: expressed in transfected cells
Text: as §1
Assays were also performed on membranes prepared from HEK293 cells stably expressing the rat Melanin concentrating hormone receptor 1 (MCH1r) (Lembo et al. Nature Cell Biol 1 267-271). Assays were performed in a 96-well plate format in a final reaction volume of 200 μl per well. […] Radioligand retained on the filters was quantified using a1450 Microbeta TRILUX (Wallac, Finland).

T1 sequence (Q99705 whole entry): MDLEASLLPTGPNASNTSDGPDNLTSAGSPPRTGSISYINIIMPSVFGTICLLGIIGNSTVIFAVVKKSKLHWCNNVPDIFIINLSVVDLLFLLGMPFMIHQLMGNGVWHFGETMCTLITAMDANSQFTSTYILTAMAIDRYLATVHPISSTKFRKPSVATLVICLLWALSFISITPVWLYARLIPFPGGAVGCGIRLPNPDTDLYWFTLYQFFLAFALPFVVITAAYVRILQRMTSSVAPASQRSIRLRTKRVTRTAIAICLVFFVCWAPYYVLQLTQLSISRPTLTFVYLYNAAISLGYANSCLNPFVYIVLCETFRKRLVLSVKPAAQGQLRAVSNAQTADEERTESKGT
T2 sequence (P97639 whole entry): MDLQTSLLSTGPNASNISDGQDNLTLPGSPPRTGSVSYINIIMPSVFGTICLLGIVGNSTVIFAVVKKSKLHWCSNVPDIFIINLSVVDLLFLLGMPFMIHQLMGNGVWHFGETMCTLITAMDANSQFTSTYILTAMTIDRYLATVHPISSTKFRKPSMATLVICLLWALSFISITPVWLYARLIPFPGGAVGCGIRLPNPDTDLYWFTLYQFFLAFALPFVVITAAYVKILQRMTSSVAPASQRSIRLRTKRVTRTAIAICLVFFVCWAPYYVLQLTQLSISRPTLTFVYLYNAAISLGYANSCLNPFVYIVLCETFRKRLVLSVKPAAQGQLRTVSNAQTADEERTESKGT

| pIC50 [1] | pIC50 [2] | Structure (SMILES) |
| --- | --- | --- |
| – | 7.10 | Cc1cc(N[C@H]2CC[C@H](NCc3cn(C)c4ccccc34)C2)nc2ccc(F)cc12 [Example 6, (1S,3S)-N-(6-fluoro-4-methylquinolin-2-yl)-N′-[(1-methyl-1H-indol-3-yl)methyl]cyclopentane-1,3-diamine] |
| 7.03 | – | COc1ccc2nc(N[C@H]3CC[C@H](NCc4ccc(-c5cccs5)s4)C3)cc(C)c2c1 [Example 16, (1S,3S)-N-(2,2′-bithien-5-ylmethyl)-N′-(6-methoxy-4-methylquinolin-2-yl)cyclopentane-1,3-diamine] |
| 6.08 | – | Cc1cc(N[C@H]2CC[C@H](NCc3cn(C)c4cnccc34)C2)nc2ccc(F)cc12 [Example 35, (1S,3S)-N-(6-Fluoro-4-methylquinolin-2-yl)-N′-[(1-methyl-1H-pyrrolo[2,3-c]pyridin-3-yl)methyl]cyclopentane-1,3-diamine] |

The next lines start with the compound.

| Structure (SMILES) | pIC50 [1] | pIC50 [2] |
| --- | --- | --- |
| COc1cc(N[C@H]2CCC[C@H](NCc3ccsc3)C2)nc2ccc(F)cc12 [Example 5, (1S3S)-N-(6-fluoro-4-methoxyquinolin-2-yl)-N′-(3-thienylmethyl)cyclohexane-1,3-diamine] | 7.59 | – |
| COc1ccc2nc(N3CC4CCC(C3)C4N(C)Cc3ccsc3)cc(C)c2c1 (stereo not drawn) [Example 20, 3-(6-Methoxy-4-methylquinolin-2-yl)-N-methyl-N-(3-thienylmethyl)-3-azabicyclo [3.2.1]octan-8-amine] | 6.25 | – |
| COc1ccc2c(C)cc(N[C@H]3C[C@@H]4C[C@H]3[C@@H](NCc3cn(C)c5ccccc35)C4)nc2c1 [Example 32, (1S,2S,4R,6S)-N-(7-methoxy-4-methylquinolin-2-yl)-N′-[(1-methyl-1H-indol-3-yl)methyl]bicyclo[2.2.1]heptane-2,6-diamine] | 7.36 | – |
